Experimental data from patent US4997847A, “Biologically active compounds” (Smith Kline & French Laboratories Limited, priority 1987, dated 1991).

Target: T1, TXA2 receptors (Homo sapiens, UniProt P21731)
T1 construct: to Washed Human Platelets; endogenous in cells; host or cells: washed human platelets
T1 sequence (P21731 1-343): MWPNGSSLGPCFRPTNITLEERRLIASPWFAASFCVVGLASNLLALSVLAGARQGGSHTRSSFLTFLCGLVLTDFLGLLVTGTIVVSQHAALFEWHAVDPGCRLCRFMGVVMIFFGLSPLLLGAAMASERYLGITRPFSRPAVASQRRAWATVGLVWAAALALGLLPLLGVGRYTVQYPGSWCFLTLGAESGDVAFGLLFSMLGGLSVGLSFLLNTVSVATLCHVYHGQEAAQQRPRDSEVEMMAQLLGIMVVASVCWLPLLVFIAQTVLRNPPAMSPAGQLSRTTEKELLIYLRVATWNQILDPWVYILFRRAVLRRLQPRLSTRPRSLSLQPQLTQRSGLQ
Assay: Human platelet binding assay: inhibition of [^125 I]PTA-OH binding to washed human platelets
Settings: [^125 I]PTA-OH as receptor ligand, 50% inhibition of specific binding
Source text: As indicated above, compounds of the formula (I) have biological activity that is indicative of an ability to antagonise TXA2 receptors.
The platelet binding assay used was essentially the method described by Mais et al, J. Pharm. Exp. Ther., 1985, 235(3), 729-734 where [^125 I]PTA-OH was used as the receptor ligand.
The IC50 values represent the concentration which produces a 50% inhibition of specific [^125 I]PTA-OH binding.
The activities of the compounds of the present invention in the assay are described in Example 33.
Inhibition of [^125 I]PTA-OH Binding
to Washed Human Platelets

Row | IC50 [nM] | Compound
1 | 75 | Cc1ccc(S(=O)(=O)NCCCCCCCC(=O)O)cc1 [Example 21, 8-(4-tolylsulphonamido)octanoic acid]
2 | 360 | CC(C)(CCCCCCCNS(=O)(=O)c1ccc(Cl)cc1)C(=O)O [Example 30, 9-(4-Chlorophenylsulphonamido)-2,2-dimethylnonanoic Acid]
3 | 330 | CC(C)(CCCCCNS(=O)(=O)c1ccc(Cl)cc1)C(=O)O [Example 31, 7-(4-Chlorophenylsulphonamido)-2,2-dimethylheptanoic Acid]
4 | 1900 | O=C(O)CCCCCCCCCCNS(=O)(=O)c1cccc(Cl)c1 [Example 20, 11-(3-Chlorobenzenesulphonamido)undecanoic Acid]
5 | 600 | O=C(O)CCCCCCCCCCNS(=O)(=O)c1ccc(Cl)cc1 [Example 19, 11-(4-Chlorobenzenesulphonamido)undecanoic Acid]
6 | 40 | O=C(O)CCCCCCCNS(=O)(=O)c1ccc(Cl)s1 [Example 29, 8-(5-Chloro-2-thienylsulphonamido)octanoic Acid]
7 | 40 | O=C(O)CCCCCCCCNS(=O)(=O)c1ccc(Br)cc1 [Example 26, 9-(4-Bromobenzenesulphonamido)nonanoic Acid]
8 | 220 | O=C(O)CCCCCCCNS(=O)(=O)c1ccc(F)cc1 [Example 25, 8(4-Fluorobenzenesulphonamido)octanoic Acid]
9 | 60 | O=C(O)CCCCCCCCCNS(=O)(=O)c1ccc(Cl)cc1 [Example 24, 10-(4-Chlorobenzenesulphonamido)decanoic Acid]
10 | 70 | O=C(O)CCCCCCCNS(=O)(=O)c1ccc(Cl)c(Cl)c1 [Example 18, 8-(3,4-Dichlorobenzenesulphonamido)octanoic Acid]
11 | 250 | O=C(O)CCCCCCCCNS(=O)(=O)c1cccc(Cl)c1 [Example 23, 9-(3-Chlorobenzenesulphonamido)nonanoic Acid]
12 | 650 | O=C(O)CCCCCCCNS(=O)(=O)c1cc(Cl)sc1Cl [Example 32, 8-(2,5-Dichloro-3-thienylsulphonamido)octanoic Acid]

The remaining lines, values behind:

Row | Compound | IC50 [nM]
13 | O=C(O)CCCCCCCNS(=O)(=O)c1ccccc1 [Example 2, 8-(Benzenesulphonamido)octanoic Acid] | 290
14 | CC(C)(CCCCCCCCNS(=O)(=O)c1ccc(Cl)cc1)C(=O)O [Example 10, 2,2-Dimethyl-10-(4-chlorobenzenesulphonamido)decanoic Acid] | 470
15 | O=C(O)CCCCCCNS(=O)(=O)c1ccc(Cl)cc1 [Example 13, 7-(4-Chlorobenzenesulphonamido)heptanoic Acid] | 270
16 | O=C(O)CCCCCCCNS(=O)(=O)c1ccc([N+](=O)[O-])cc1 [Example 15, 8-(4-Nitrobenzenesulphonamido)octanoic Acid] | 110
17 | O=C(O)CCC/C=C\CNS(=O)(=O)c1ccc(Cl)cc1 [Example 9, (Z)-7-(4-Chlorobenzenesulphonamido)hept-5-enoic Acid] | 1600
18 | O=C(O)CCCCCCCNS(=O)(=O)c1cccc(Cl)c1 [Example 14, 8-(3-Chlorobenzenesulphonamido)octanoic Acid] | 160
19 | O=C(O)CCCCCCCCCCCNS(=O)(=O)c1ccc(Cl)cc1 [Example 11, 12-(4-Chlorobenzenesulphonamido)-dedecanoic Acid] | 7000
20 | CC(C)(CCCCCNS(=O)(=O)c1ccc(Cl)cc1)CC(=O)O [Example 12, 8-(4-Chlorobenzenesulphonamido)-3,3-dimethyloctanoic Acid] | 600
21 | O=C(O)CCCCCCNS(=O)(=O)c1ccccc1 [Example 1, 7-(Benzenesulphonamido)heptanoic Acid] | 2300
22 | O=C(O)CCCCCCCNS(=O)(=O)c1ccc(Cl)cc1 [Example 3, 8-(4-Chlorobenzenesulphonamido)octanoic Acid] | 30
23 | O=C(O)CCCCCCCCNS(=O)(=O)c1ccc(Cl)cc1 [Example 6, 9-(4-Chlorobenzenesulphonamido)nonanoic Acid] | 18
24 | O=C(O)CCCCCCCNS(=O)(=O)c1ccc(Br)cc1 [Example 16, 8-(4-Bromobenzenesulphonamido)octanoic Acid] | 20
25 | CC(C)(CCCCCCNS(=O)(=O)c1ccc(Cl)cc1)C(=O)O [Example 5, 8-(4-Chlorobenzenesulphonamido)-2,2-dimethyloctanoic Acid] | 150
26 | COc1ccc(S(=O)(=O)NCCCCCCCC(=O)O)cc1 [Example 17, 8-(4-Methoxybenzenesulphonamido)octanoic Acid] | 300
27 | O=C(O)CCCC#CCNS(=O)(=O)c1ccc(Cl)cc1 [Example 8, 7-(4-Chlorobenzenesulphonamido)hept-5-ynoic Acid] | 5400
28 | O=C(O)CCCCCNS(=O)(=O)c1ccccc1 [Example 4, 6-(Benzenesulphonamido)hexanoic Acid] | 61000
29 | O=C(O)CCCCCCCCNS(=O)(=O)c1ccccc1 [Example 7, 9-(Benzenesulphonamido)nonanoic Acid] | 280
